The values below come from patent publication US20260217761A1, “ANTIMICROBIAL PEPTIDE RICH IN TRYPTOPHAN AND HAVING SELF-ASSEMBLY PROPERTIES, AND USE THEREOF” (NANOQURE BIOTECH (SHENZHEN) CO., LTD., priority 2022, published 2026).

Data set [1] deals with various bacteria. The data set can be described thus: MIC against various bacteria (broad-spectrum antimicrobial activity). In kind it is cell-based. How it is done: • A. The antimicrobial peptide was prepared into a certain stock solution for use. 0.01% acetic acid (containing 0.2% BSA) was used as the diluent, and a series of gradient antimicrobial peptide solutions were prepared sequentially by a two-fold dilution method. • B. 100 μL of the above-mentioned antimicrobial peptide stock solution was taken and placed in a 96-well cell culture plate. Then, an equal volume of the test bacterial solution (approximately 10^5 cells/mL) was added to each well. A positive control (containing the bacterial solution but no antimicrobial peptide) and a negative control (containing neither bacterial solution nor the peptide) were included, respectively. The test bacterial species include Pseudomonas aeruginosa (Pseudomonas aeruginosa PL1, Pseudomonas aeruginosa SP1), Staphylococcus aureus (Staphylococcus aureus 544, Staphylococcus aureus 103), Escherichia coli (Escherichia coli 729, Escherichia coli 112), Klebsiella Pneumoniae (Klebsiella Pneumoniae 106, Klebsiella Pneumoniae 727), Streptococcus pneumonia 383, Acinetobacter baumannii (Acinetobacter baumannii 946, Acinetobacter baumannii 780) (FIG. 1), or Pseudomonas aeruginosa (Pseudomonas aeruginosa PAO1), Staphylococcus aureus (Staphylococcus aureus SP1), and a mixed solution of the above two bacteria (FIG. 2). • C. The culture plate was placed in a constant temperature incubator at 37° C. for 20 h. The minimum inhibitory concentration is determined as the condition where no turbidity is observed at the bottom of the well with naked eyes.
• A. The polypeptide Z4 composed entirely of dextrorotatory amino acids is called the dextrorotatory isomer of polypeptide Z4. The polypeptide Z4-D was prepared into a certain stock solution for use. […] The minimum inhibitory concentration is determined as the condition where no turbidity is observed at the bottom of the well with naked eyes.

The nature of data set [2]: Self-assembly observed by scanning electron microscopy (SEM). The class given is physicochemical. To be noted: in phosphate-buffered saline (PBS) (pH=7.2). How it is done: Without being bound by any theory, it is deduced that the reason why WW++W++WW has better self-assembly activity and MIC than +++WWW+++ is based on the WW at both ends of the peptide, rather than the number of positively charged amino acids (K and/or R). • B. Observation of polypeptide Z4 by scanning electron microscopy (SEM): To prepare SEM samples for observing the self-assembly of the polypeptide, 10 μL of the polypeptide was placed on tin foil that had been ultrasonically treated for 30 min.
After drying, the samples were sputter-coated with gold. All samples were observed using Gimini SEM 500.

Data set [3] relates to S. aureus. The data set can be described thus: Killing curve (bactericidal activity) against S. aureus. The class given is cell-based, Staphylococcus aureus. As for the experimental part: (§1) • A. To determine the bactericidal ability of polypeptide Z4, Pseudomonas aeruginosa and Staphylococcus aureus were suspended in PBS until OD600 nm=0.4, then diluted 1000 times with fresh PBS and mixed in equal volumes. Polypeptide Z4 was added to the bacterial suspension at concentrations of 1×MIC and 2×MIC. […] After incubation at 37° C. for 18 h, the single colonies of the microorganisms were counted. The experiment was repeated 3 times and the average value was calculated.

Data set [4] has as its system mixed bacterial solution of P. aeruginosa PAO1 and S. aureus SP1. In kind it is cell-based. As for the experimental part:
After ultrasonic treatment of polypeptide Z4 and polypeptide Z4-D for 30 min, they were placed at room temperature for 2 h to promote their self-assembly. Subsequently, proteinase K with a final concentration of 0.2 g/mL was mixed with the polypeptide solution (final concentration of 640 μM) and incubated at 37° C. for 0, 30, 60, 90 or 120 min respectively. Then, according to the scheme described in Example 2, the MICs of the polypeptides against the mixed bacterial solution of P. aeruginosa PAO1 and S. aureus SP1 under different treatment conditions were determined.

Data set [5] has as its system mixed biofilm of P. aeruginosa and S. aureus. The data set can be described thus: Anti-biofilm activity on formed mixed biofilm (crystal violet). The class given is cell-based. As to conditions: for removal effect on the formed biofilm: 3 h. How it is done: • B. To investigate the anti-biofilm activity of polypeptide Z4, P. aeruginosa and S. aureus were grown overnight at 37° C. in tryptic soy broth medium until the logarithmic phase, and then diluted to 1×10^7 CFU/mL and 1×10^6 CFU/mL respectively, and mixed in equal amounts to prepare a mixed bacterial culture. Subsequently, 100 μL of the mixed bacterial suspension was incubated at 37° C. for 24 h to obtain a mixed biofilm. Then, antimicrobial peptides with a final concentration of 2-32 μM were added to a 96-well plate. After incubation at 37° C. for 3 h, the medium was discarded, and the 96-well plate was washed three times with PBS (pH=7.2). After drying at room temperature, 200 μL/well of […] crystal violet staining solution was added to the plate. After incubation at 37° C. for 30 minutes, it was rinsed three times with PBS. After air drying at room temperature, 200 μL/well of 95% ethanol was added and incubated at 37° C. for 30 min, and the absorbance was measured at 595 nm. A total of 3 experiments were set up, and each experiment was repeated 3 times.

The subject of data set [6] is P. aeruginosa. Briefly: Killing curve (bactericidal activity) against P. aeruginosa. The class given is cell-based, Pseudomonas aeruginosa. As for the experimental part: as §1
Data set [7] deals with inflammatory cells. The data set can be described thus: Inflammatory cells in sections of skin tissue at the infected site. To be noted: mice, versus PBS control. In kind it is in vivo.
Data set [8] relates to P. aeruginosa in the catheter biofilm. Briefly: In vivo bactericidal activity in the catheter biofilm, P. aeruginosa. To be noted: mice, versus PBS control.
The test system of data set [9] is IL-6. The data set can be described thus: IL-6 content in the skin tissue at the infected site. The class given is in vivo. As to conditions: mice.
For data set [10], the system named is mixed bacterial solution of Pseudomonas aeruginosa and Staphylococcus aureus. The class given is cell-based, Pseudomonas aeruginosa PAO1 and Staphylococcus aureus SP1. As for the experimental part: • A. The antimicrobial peptide was prepared into a certain stock solution for use. 0.01% acetic acid (containing 0.2% BSA) was used as the diluent, and a series of gradient antimicrobial peptide solutions were prepared sequentially by a two-fold dilution method. • B. 100 μL of the above-mentioned antimicrobial peptide stock solution was taken and placed in a 96-well cell culture plate. Then, an equal volume of the test bacterial solution (approximately 10^5 cells/mL) was added to each well. A positive control (containing the bacterial solution but no antimicrobial peptide) and a negative control (containing neither bacterial solution nor the peptide) were included, respectively. […] The culture plate was placed in a constant temperature incubator at 37° C. for 20 h. The minimum inhibitory concentration is determined as the condition where no turbidity is observed at the bottom of the well with naked eyes.

The test system of data set [11] is S. aureus in the catheter biofilm. The data set can be described thus: In vivo bactericidal activity in the catheter biofilm, S. aureus. As to conditions: mice, versus PBS control.

≈ marks a conversion by molar mass, not a printed value. Where “and” joins values, the source holds several entries; their conditions need not be identical. Equal entries are not always repeated. Where two headings read alike, the source gives them in different places. Residues, ends and D or L forms follow the SMILES beside them. No end group written: not given here.

With `NCCCC[C@H](NC(=O)[C@H](CCCCN)NC(=O)[C@H](Cc1c[nH]c2ccccc12)NC(=O)[C@H](CCCCN)NC(=O)[C@H](CCCCN)NC(=O)[C@H](Cc1c[nH]c2ccccc12)NC(=O)[C@@H](N)Cc1c[nH]c2ccccc12)C(=O)N[C@@H](Cc1c[nH]c2ccccc12)C(=O)N[C@@H](Cc1c[nH]c2ccccc12)C(N)=O` [Z4, WWKKWKKWW-NH2] (H-WWKKWKKWW-NH2; N-terminus assumed), in [1], the broad-spectrum antimicrobial activity entry was “good broad-spectrum antimicrobial activity”. Also, the “average particle size of self-assembled nanomicelle” value in data set [2] was 174.62 nanometers. Besides, the “time within which all S. aureus were killed” value in data set [3] (1×MIC (4 μM)) and in data set [3] (2×MIC (8 μM)) was no more than 360 min each time. For the same compound, the “survival number of S. aureus” value stood at 2000 CFU/mL in [3] (1×MIC, 300 min); 0 CFU/mL in data set [3] (1×MIC, 360 min); 0 CFU/mL in data set [3] (2×MIC, 360 min). Besides, in [3] (compared with gentamicin), the “bactericidal rate against S. aureus compared with gentamicin” value was “no significant difference in the bactericidal rate”. Also, the “MIC after proteinase K treatment” value in data set [4] (2 h) was 8 µM (≈ 11.7 µg/mL). Also, the “decrease of antimicrobial activity due to hydrolysis by proteinase K” value in data set [4] (proteinase K treatment, 90 minutes) is recorded as 50%. Also, in data set [4] (proteinase K treatment, before 90 minutes), the “MIC before increase under proteinase K treatment” value came out at 4 µM (≈ 5.84 µg/mL). Besides, the “removal effect on the formed biofilm” value was 32.16% and 56.39% and 56.88% in data set [5] (concentration 4 μM); 28.16% and 29.51% and 42.64% in data set [5] (concentration 8 μM). In addition, the anti-biofilm activity entry in data set [5] (mixed biofilm) is “good and direct anti-biofilm activity”. Also, in data set [5] (mixed biofilm), the “concentration at which more than 50% of biofilm is removed” value amounted to 8 μm. For the same compound, the “concentration at which more than 50% of the biofilm is removed” value in data set [5] (mixed biofilm) came out at 8 µM. Besides, the “time within which all P. aeruginosa were killed” value is no more than 60 min in data set [6] (1×MIC (4 μM)) and no more than 30 min in [6] (2×MIC (8 μM)). Besides, the “survival number of P. aeruginosa” value in data set [6] (1×MIC, 0 min) was 134000 CFU/mL and 112000 CFU/mL and 104000 CFU/mL; in data set [6] (1×MIC, 60 min) it was 0 CFU/mL; in data set [6] (1×MIC, 120 min), 0 CFU/mL; in [6] (1×MIC, 180 min), 0 CFU/mL; in data set [6] (1×MIC, 240 min), 0 CFU/mL; in data set [6] (1×MIC, 300 min) it was 0 CFU/mL. Besides, the “survival number of P. aeruginosa” value in [6] (2×MIC, 0 min) was 186000 CFU/mL and 136000 CFU/mL and 132000 CFU/mL; in data set [6] (2×MIC, 30 min), 0 CFU/mL; in data set [6] (2×MIC, 60 min), 0 CFU/mL; in [6] (2×MIC, 120 min), 0 CFU/mL; in [6] (2×MIC, 180 min) it was 0 CFU/mL; in [6] (2×MIC, 240 min), 0 CFU/mL. The “bactericidal rate against P. aeruginosa compared with gentamicin” value in data set [6] (compared with gentamicin) is recorded as “faster bactericidal rate”. The “number of infiltrated inflammatory cells” value in [7] is “reduced”. Moreover, the “number of Pseudomonas aeruginosa colonized in the catheter” value in data set [8] is given as “significantly reduced”. Moreover, in [9] (Biofilm + Z4), the “IL-6 content in the skin tissue at the infected site” value is 110.6228 pg/g and 89.73 pg/g and 91.09 pg/g and 95.94 pg/g and 137.9124 pg/g and 127.2606 pg/g and 88.31 pg/g and 94.64 pg/g. The “level of IL-6 in the skin tissue” value in [9] (versus PBS control) is given as “reduced”. The “minimum inhibitory concentration (MIC)” value was 4 µM (≈ 5.84 µg/mL) in [10]; 4 µM (≈ 5.84 µg/mL) in data set [10] (mixed bacterial solution of Pseudomonas aeruginosa and Staphylococcus aureus). In data set [11], the “number of Staphylococcus aureus colonized in the catheter” value is listed as “significantly reduced”.
Take Gentamicin: the “survival number of S. aureus” value was 2000 CFU/mL and 4000 CFU/mL in [3] (1×MIC, 30 min); 2000 CFU/mL and 4000 CFU/mL in data set [3] (1×MIC, 180 min); 0 CFU/mL in data set [3] (1×MIC, 360 min); 0 CFU/mL in data set [3] (2×MIC, 300 min); 0 CFU/mL in [3] (2×MIC, 360 min). For the same compound, the “removal effect on the formed biofilm” value in [5] (concentration 2 μM) is 90.78% and 99.18% and 100%; in data set [5] (concentration 4 μM), 67.84% and 74.15% and 105.2663%; in [5] (concentration 8 μM), 86.98% and 97.37% and 78.85%; in data set [5] (concentration 16 μM) it was 64.53% and 107.33% and 74.22%. Besides, the “concentration at which more than 50% of the biofilm is removed” value in data set [5] (mixed biofilm) came to 32 µM. The “survival number of P. aeruginosa” value in [6] (1×MIC, 0 min) is 140000 CFU/mL and 126000 CFU/mL and 130000 CFU/mL and 122000 CFU/mL; in [6] (1×MIC, 15 min), 116000 CFU/mL and 120000 CFU/mL and 140000 CFU/mL and 108000 CFU/mL; in [6] (1×MIC, 30 min), 104000 CFU/mL and 126000 CFU/mL and 110000 CFU/mL; in [6] (1×MIC, 60 min) it was 112000 CFU/mL and 92000 CFU/mL and 106000 CFU/mL and 110000 CFU/mL; in data set [6] (1×MIC, 120 min) it was 30000 CFU/mL and 52000 CFU/mL and 54000 CFU/mL; in data set [6] (1×MIC, 300 min), 0 CFU/mL. Further, the “survival number of P. aeruginosa” value in [6] (2×MIC, 0 min) was 142000 CFU/mL and 134000 CFU/mL and 122000 CFU/mL and 106000 CFU/mL; in data set [6] (2×MIC, 15 min), 166000 CFU/mL and 104000 CFU/mL and 136000 CFU/mL and 128000 CFU/mL; in data set [6] (2×MIC, 30 min) it was 116000 CFU/mL and 154000 CFU/mL and 126000 CFU/mL and 130000 CFU/mL; in data set [6] (2×MIC, 60 min), 92000 CFU/mL and 82000 CFU/mL and 70000 CFU/mL and 68000 CFU/mL; in [6] (2×MIC, 240 min), 0 CFU/mL.
As for “KWKWWWKWK-NH2 [Z1, centrally symmetric 9-peptide of tryptophan and lysine]”, the broad-spectrum antimicrobial activity entry in data set [1] is “good broad-spectrum antimicrobial activity”.
